Assay results as given in US20250263771A1, “SYSTEM AND METHODS TO MEASURE CELL VIABILITY IN HIGH THROUGHPUT VIA CONTINUOUS GEOMETRY” (priority 2022, published 2025).
Like-named read-outs stand apart in the source and are kept apart here.

What was measured:
E. coli strain BW25113 = assay: Geometric Viability Assay (GVA) of drug-treated stationary and exponential E. coli cultures; type: cell-based, Escherichia coli; details: for activity in dose response, stationary versus exponential cultures (follow up of Enzo library hits): stationary and exponential cultures; for activity in aerobic versus anaerobic environments: stationary phase cells; for resistance of stationary phase cells compared with exponentially growing cells: 3 antibiotics, 6 concentrations, 5 durations; for reduction in viability: within an hour
Text: Previous studies have found slow growth is a non-inheritable form of antibiotic tolerance buying time for viable cells to develop genetic resistance. Slow-growing cells commonly have reduced metabolic activity and DNA replication as compared to exponentially growing cells. As a result, slow-growing cells are refractory to antibiotics targeting DNA synthesis (fluoroquinolones), protein translation (aminoglycosides), and cell wall biogenesis (beta-lactams). Growth-dependent tolerance can only be observed by measuring viability but the tedium and cost of the drop CFU assay limits extensive profiling. Using GVA, Applicants directly compared the viability of exponentially growing cells and stationary phase cells to different doses of three antibiotics for varying amounts of time. In total, Applicants tested 3 antibiotics at 6 different concentrations for 5 different durations against stationary and exponential cells, in duplicate, for a total of 360 viability measurements (FIG. 5a,b).
To explore the GVA technique's potential for high throughput viability measurements, Applicants screened the ICCB Enzo Bioactive library (469 compounds) against stationary and exponentially growing cultures (FIG. 5c,d). […] The viability of BW25113 E. coli treated with the Enzo library was measured in both exponential and stationary phase. Including controls and removing pipette errors, 2267 conditions were measured. […] Mitomycin C is a known antibiotic acting through DNA cross-linking. […] Phentolamine is an α-adrenergic receptor antagonist.
(§1) For stationary phase treatments, bacterial cells were grown overnight (≥16 hours) in a shaking incubator (180 RPM). For P. putida only, cells were grown for 2 days. Upon entering the stationary phase, cells were distributed into a 96 well flat-bottom plates with 100 μL of cells per well. Drug treatments at 1000× were plated into a separate 96 well-round bottom plate. A 100 nL pin transfer was used to dilute the drug plate into the cell plate at a 1:1000 ratio. This plate was then placed into a shaking incubator for the experimental time. To measure antibiotic treatments in the exponential phase, overnight culture was diluted 1:1000 into fresh LB. This culture was then placed into the incubator for 2 hours. After this incubation, the cells were then distributed to the 96 well plate followed by drug treatment.
(§2) Embedding for GVA: The goal for embedding was to have a uniformly mixed sample in liquid hydrogel that would quickly solidify the 3D mold. Applicants used 0.5% agarose as a convenient hydrogel that would solidify quickly and prevent cell motility once solidified.

[1] = test system: cytoplasmic superoxide (ROS) in E. coli; assay: Single-cell CellROX fluorescence (ROS levels) over time; type: cell-based, Escherichia coli; details: for effect on ROS (CellROX signal) over time: lethal dose, compared to untreated control
Experimental: (§3) Microscopy measurements: For all microscopy experiments, cells from overnight cultures were diluted 1:100 in minimal media (PMM) and shaken for 2 hours at 37° C. to ensure cells had exited lag phase. After 2 hours of growth, 2 μL of dilute cell culture was added to the top of a cooled, 200 μL 2% low melt agarose pad with CellROX dye (5 μM). The agarose pad was molded to fit in 96-well square bottom plates (Brooks Automation, MGB096-1-2-LG-L). After 10 minutes of drying, the pad with affixed cells was inverted and pressed into the bottom of an imaging plate. Fields of view (FOV) were selected manually on the microscope. After FOVs were selected and before the imaging started, the drug was added on top as done previously.

E. coli [2] = details: 4 hours of treatment, less than 10 μg/mL DPI
Text: (§4) Filamentation is a classic hallmark of SOS activation and increases in ROS are an established SOS activator. Therefore, Applicants wondered if DPI was activating SOS. Applicants examined the promoter activity of genes downstream of lexA using the PEC GFP-promoter library. LexA is a master transcriptional repressor of genes in the SOS regulon such as pol, dinB, dinG, and yjiH, and is auto-catalytically degraded by activated recA.
as §3

[3] = test system: promoters of genes downstream of lexA (pol, dinB, dinG, yjiH, lexA)
Text: as §4
(§5) Strains and growth conditions: E. coli strain BW25113 was used unless otherwise noted in the text. This strain was acquired from the Yale Coli Genetic Stock Center. E. coli was grown in LB (Sigma Aldrich) at 37° C. in a shaking incubator. B. subtilis strain W168 was a kind gift from the Garner lab and was grown in LB at 37° C. in a shaking incubator. P. putida strain KT2440 was a kind gift from Jacob Fenster and was grown in LB at 30° C. in a shaking incubator. S. typhimurium strain SL1344 was a kind gift from the Corrie Detweiler and was grown in LB at 37° C. in a shaking incubator. S. cerevisiae strain BY4741 was a kind gift from Roy Parker and was grown in YEPD at 30° C. in a shaking incubator. P. aeruginosa strain PA01 was a kind gift from the Zemer Gitai and was grown in LB at 37° C. in a shaking incubator. Knockouts were selected from the Keio collection (Dharmacon). The PEC promoter library in E. coli was acquired from Dharmacon (PEC3877).
as §3

E. coli knockout mutants = test system: E. coli knockout mutants
Experimental: as §5, §1, §2

stationary phase E. coli = details: for increase in viability as compared to either drug alone: 24 hours treatment
Experimental: as §1, §2

S. typhimuirium = details: DPI crossed with ciprofloxacin or gentamicin
Experimental: as §5

[4] = test system: E. coli, stationary phase and exponential phase; assay: GVA viability screen of an 80-compound drug library, 96 well format; type: cell-based, Escherichia coli; details: treated for 4 hours, duplicate
Experimental: FIGS. 27A-B: Screen of compounds that affect viability in exponential and stationary phase using data from a GVA assay in 96 well format drug testing. The antibiotic potential of a drug library (80 compounds) was tested against exponential and stationary phase bacteria in duplicate. (A) Viability reduction of compounds in exponential (top) and stationary (bottom) phase cells. Each x is the mean of 2 biological replicates. (B) Scatter plot of the viability screen comparing exponential and stationary phase activity. Each blue dot represents the mean of 2 replicates of a compound treatment. Red dots represent DMSO controls. The dashed lines represent 3 times the standard deviation of the negative controls. Screen was performed with E. coli with both stationary phase and exponential phase bacterial populations. Both phases were screened in duplicate. 80 compounds and 16 controls were screened. Cells in stationary and exponential phase were treated with the compound for 4 hours, followed by casting into pipet tips using the GVA protocol.

E. coli [5] = details: DPI and ciprofloxacin, optical density over 8 hours
Text: FIG. 6A-I: DPI generates ROS, activates the SOS response, and antagonizes ciprofloxacin. a) Median, single-cell CellROX signal as a function of time for DPI (blue), ciprofloxacin (orange), and an untreated control (yellow). b) Efficacy of DPI in aerobic and anaerobic conditions. […] Brightness and contrast is the same for all images. […] The dose response for the wild-type (WT) cells is depicted in green or purple, respectively. Shaded errorbars equal to the standard deviation in logspace between 3 replicates. […] Each square in the heatmap was the mean of duplicate conditions. Colorbar correspond to the log10 (CFUs/mL) for each dose combination. […] Optical density was measured for each condition over 8 hours and the integrated area under the growth curve (AUGC) is depicted (colorbar). i) Dose response curves for temporally staggered combinations. All treatments lasted for 24 hours total. Pretreated conditions were treated for 2 hours with a single drug followed by 22 hours with both drugs.
To test for antagonism, Applicants measured viability in a time-resolved, checkerboard assay using GVA (FIGS. 6f, 21). In the checkerboard assay, DPI was combined with either ciprofloxacin or gentamicin across a 6×6 dose matrix. The ease of GVA enabled sampling the checkerboard over time, resulting in a complete pharmacokinetic profile of the drug-drug interaction.

[6] = 24 hours total, 2 hours single drug then 22 hours both drugs

## c1ccc2c(c1)[I+]c1ccccc1-2 [DPI, diphenyleneiodonium]
E. coli strain BW25113
  activity in dose response, stationary versus exponential cultures (follow up of Enzo library hits): active against both stationary and growing cultures
E. coli strain BW25113; increasing concentrations of ascorbic acid
  efficacy on adding a ROS scavenger (ascorbic acid): reduced DPI efficacy
E. coli strain BW25113; intermediate DPI concentrations, GVA
  viability at intermediate concentrations: maintained viability
E. coli strain BW25113; 24 hours
  activity in aerobic versus anaerobic environments: less active in anaerobic cultures
[1]; lethal DPI dose
  ROS after the initial decrease: rapid spike in ROS
  time to ROS nadir after the drug was added: around 75 minutes
[1]
  effect on ROS (CellROX signal) over time: substantially decreased ROS
E. coli [2]
  cell morphology: formation of bacterial filaments
[3]
  dinB, dinG, and yjiH promoter activity: DPI-dependent increase
[3]; compared to a ribosomal protein control (rrnB)
  pol promoter activity: persistent, dose-dependent induction
[3]; lexA promoter
  time to increased lexA promoter activity after DPI addition: ≤ 90 min
[3]; pol promoter, dose where filamentation was observed
  dose giving the highest promoter activity: 3 µg/mL
E. coli knockout mutants; either growth phase
  potency in knockouts of other DNA repair enzymes, redox repair enzymes, or ROS scavengers: did not substantially change the potency
E. coli knockout mutants; recA knockout, stationary and exponential phases
  susceptibility of recA knockouts: more susceptible to DPI
E. coli knockout mutants; stationary cells
  potency in yedZ and fre knockouts: modestly increased the potency
Stationary phase E. coli; [6]
  effect of 2 hours DPI pretreatment before adding ciprofloxacin: further increased protection
  effect of 2 hours ciprofloxacin pretreatment before DPI: reduced DPI's antagonistic effects
Stationary phase E. coli; DPI combined with ciprofloxacin
  increase in viability as compared to either drug alone: 1,000 fold
Stationary phase E. coli; DPI combined with gentamicin
  increase in viability as compared to either drug alone: 1,000 fold
S. typhimuirium
  antagonism of ciprofloxacin and gentamicin: also observed
[4]
  activity in viability screen: bactericidal activity
E. coli [5]
  antagonism in growth inhibition assay: not observed

## Cc1cccc(CCN2CCC(C(=O)c3ccc(NS(C)(=O)=O)cc3)CC2)n1 [E-4031]
E. coli strain BW25113
  activity in dose response, stationary versus exponential cultures (follow up of Enzo library hits): did not have any dose-dependent effect on viability

## CC1(C)S[C@@H]2[C@H](NC(=O)C(C(=O)O)c3ccccc3)C(=O)N2[C@H]1C(=O)O (some centres unmarked) [carbenicillin]
E. coli strain BW25113; GVA
  resistance of stationary phase cells compared with exponentially growing cells: more resistant
E. coli strain BW25113; exponential cells, 10 μg/mL, after 24 hours treatment
  change in viable cells: increase in viable cells
E. coli strain BW25113; exponential cells, 10 μg/mL, first 6 hours
  change in number of colonies: no change in the number of colonies
E. coli strain BW25113; exponential cells, 100 μg/mL, 24 hours
  decrease in viability: 10,000 fold
E. coli strain BW25113; stationary cells, 100 μg/mL, 24 hours
  decline in viability: < 10 fold

## O=C(O)c1cn(C2CC2)c2cc(N3CCNCC3)c(F)cc2c1=O [ciprofloxacin]
E. coli strain BW25113; 10 μg/mL, initial killing within an hour, stable through 6 hours, second phase by 24 hours
  pharmacodynamic profile: biphasic pharmacodynamic profile
E. coli strain BW25113; GVA
  resistance of stationary phase cells compared with exponentially growing cells: more resistant
E. coli strain BW25113; exponentially growing cultures, 10 μg/mL
  reduction in viability: 10 fold
E. coli strain BW25113; stationary cultures, 10 μg/mL
  reduction in viability: 10 fold
E. coli strain BW25113; 24 hours
  activity in aerobic versus anaerobic environments: less active in anaerobic cultures
[1]
  effect on ROS (CellROX signal) over time: monotonically increasing levels of ROS

## CO[C@@]12[C@H](COC(N)=O)C3=C(C(=O)C(C)=C(N)C3=O)N1C[C@@H]1N[C@@H]12 [mitomycin C]
E. coli strain BW25113
  activity in dose response, stationary versus exponential cultures (follow up of Enzo library hits): more active against exponentially growing cells compared to cells in stationary phase
[4]
  activity in viability screen: bactericidal activity

## NC(=Nc1ccccc1)NC(=O)c1nc(Cl)c(N)nc1N [phenamil]
E. coli strain BW25113
  activity in dose response, stationary versus exponential cultures (follow up of Enzo library hits): did not have any dose-dependent effect on viability

## Cc1ccc(N(CC2=NCCN2)c2cccc(O)c2)cc1 [phentolamine]
E. coli strain BW25113; high concentrations (20 μg/mL)
  sensitivity of stationary versus exponentially growing cells: stationary cells were more sensitive

## gentamicin
E. coli strain BW25113; GVA
  resistance of stationary phase cells compared with exponentially growing cells: more resistant
E. coli strain BW25113; 24 hours
  activity in aerobic versus anaerobic environments: less active in anaerobic cultures
E. coli strain BW25113; stationary phase, 10 μg/mL, full 24 hours
  reduction in stationary phase cell viability: > 10 fold
